“Also recorded” adds a separate entry of the source.
How the values were obtained:
LLC tumor = test: Tumor histopathology with NIR fluorescence microscopy of resected LLC tumors; format: in vivo, mouse; settings: histological NIR images
Experimental: Tumor histopathology evaluation: […] After rinsing with PBS, the fixed sections were counterstained with nuclear fast red, dehydrated by ethanol, transferred into xylene, and finally mounted according to the standard protocol. To determine the tissue distribution of the NIR fluorophore, the dissected tissues were embedded in Tissue-Tek optimum cutting temperature compound (Sakura Finetek, Torrance, CA) without a pre-fixation step. The tissue block was frozen at −80° C. Frozen sections were cut at a thickness of 10 or 50 μm by a cryostat (Leica, Germany). Then, the tissue sections were stained with hematoxylin and eosin (H&E). The BioTek Cytation 5 (Winooski, VT) was used for pathological fluorescence imaging and observation.

[1] = cited from earlier work
[2] = Photostability under xenon lamp irradiation; format: physicochemical; settings: ethanol, xenon lamp 150 W, end of 2 h
Experimental: Optical Study, Photostability, Physicochemical Properties, and DFT Calculation: 1 mM stock solution in DMSO of the synthesized fluorophores was prepared before starting any spectral measurement. Optical properties for the synthesized fluorophores were measured in four different solvents (EtOH, DMSO, HEPES, and PBS). Absorbance spectra were measured in a Varian Cary 50 absorbance spectrophotometer (190-1100 nm). Fluorescence emission and photostability were measured and emission spectra were recorded on a Shimadzu RF-5301PC spectrofluorometer. Physicochemical properties (Log D, molecular mass, TPSA, H bond D/A, polarizability, molecular volume, and rotatable bonds) were predicted by ChemAxon (JChem plugin). Theoretical calculations of frontier molecular orbitals (FMOs) for the optimized structures of selected fluorophores were calculated based on DFT calculations at the B3LYP/6-311G(d,p) level.
In consideration of theranostic (therapeutics and diagnostic) applications, NIR cyanine fluorophores are synthesized for fluorescence imaging, photodynamic therapy (PDT), photothermal therapy (PTT), optoacoustic imaging, and cancer immunotherapy. One of the approaches before using these fluorophores in those applications is to study their biodistribution and clearance pattern in vivo. […] The power density of 150 W is much higher than the required power for fluorescence imaging, considering that the time it takes for a fluorophore to clear from the background and accumulate in sufficient quantities in the targeted tissues is unknown. […] By considering this, an aliquot of the stock solution (1 mM in DMSO) was diluted in ethanol, and the fluorescence intensity was measured at the excitation wavelength same as their absorption maxima (nm). Photodegradation rates were measured every 20 min intervals for the selected fluorophores based on the % reduced fluorescence intensity starting from 100%. […] The data were collected in every 20 min intervals under continuous irradiation with a xenon lamp at 150 W for 2 h and presented based on the % reduced fluorescence intensity starting from 100%. […]

[3] = tested on: immune cells from bone marrow and tumor tissues; test: Flow cytometry analysis of fluorophore-targeted immune cells from bone marrow and tumor; format: in vivo, mouse; settings: 48 h post-injection
Experimental: Flow cytometry analysis: Bone marrow tissue was mechanically dissociated and digested with collagenase D (175 unit/mL, Roche) and DNase I (100 unit/mL, Roche) followed by EDTA (2 mM, Invitrogen). Erythrocytes were removed using RBC Lysis Buffer (Invitrogen). Tumor tissue was mechanically dissociated and digested with collagenase I (175 unit/mL, Thermo-fisher), Collagenase IV (250 unit/mL, Thermo-fisher, 1700019), and DNase I (100 unit/mL) followed by EDTA ([…]). Immune cells were isolated from cell suspensions of the bone marrow or tumor tissue using Ficoll® Paque Plus (GE Healthcare). Isolated cells were stained with anti-mouse F4/80 (BM8, Biolegend, 123131), anti-mouse Ly-6G (1A8, Biolegend, 127639), anti-mouse Ly-6C(HK1.4, Biolegend, 128011), anti-mouse CD11c (N418, Biolegend, 117313), anti-mouse CD103 (2E7, Biolegend, 121425), anti-mouse I-A/I-E (M5/114.15.2 Biolegend, 107611), anti-mouse/human CD11b (M1/70, Biolegend, 101254) and anti-mouse CD45 antibodies (30-F11, Biolegend, 103105) conjugated to fluorophores. Isolated cells were stained with Live/dead®-Aqua (Life Technologies) to distinguish live cells. Stained cells were fixed using 1% paraformaldehyde prior to analysis. Data acquisition was performed on a Fortessa cytometer (BD) followed by analysis on FlowJo software (Tree Star).

[4] = tested on: serum proteins, mostly albumin; test: Serum protein binding kinetics (size exclusion column); format: in vitro ADME; settings: until 24 h incubation
Experimental: FIG. 15 Reaction kinetics of SH1, ICG, and IR-780 to serum proteins, mostly albumin. 50 nmol of each dye was mixed with 1 ml of FBS/PBS (pH 7.4) 50/50 v/v %, incubated at 37° C., and analyzed using a BioResolve size exclusion column (200 Å, 2.5 μm, 7.8×300 mm). The binding percentage was calculated by dividing by absorbance of bound dye at 24 h assuming the dyes can bind in maximum capacity in the protein at 24 h.

[5] = tested on: lung carcinoma (LLC cell line); test: NIR-II fluorescence imaging of subcutaneous LLC tumor-bearing C57BL/6 mice; format: in vivo, mouse; settings: for tumor targeting / tumor signal: intravenous, NIR-II imaging until 48 h post-injection
From the text: General NIR-II fluorescence imaging: A 640×512-pixel InGaAs camera (Ninox640, Raptor Photonics) and macro zoom lens (0-10×; Navitar Zoom 7000 with SWIR coating) along with 900, 1070, 1100, and 1200 nm long-pass (LP) filters from either Thorlab or Edmund optics were used to collect the NIR-II signal. InGaAs camera played a role as an open-air imaging system along with the support of the FLARE system. An 808 nm fiber-coupled diode laser ([…] at the sample) was used as an excitation source. Data acquisition was done using in-house developed software. […] Mice were imaged with intact skin using InGaAs camera. At least 3 mice were analyzed for each sample. Tumor-bearing mouse models: Animals were housed in an AAALAC-certified facility and were studied under the protocols approved by the MGH IACUC (2016N000136). Mice were maintained under anesthesia with isoflurane and oxygen during the experiment. To establish the various tumor-bearing mouse models including lung carcinoma, pancreatic ductal adenocarcinoma (PDAC), and triple negative breast adenocarcinoma, eight-week-old C57BL/6 mice (Taconic Farms, Germantown, NY) were subcutaneously injected with 2×10^5 LLC, Pan02, and E0771 cells suspended in DMEM/Matrigel (100 μL, 50 v/v %) in the flank region, respectively. Female C57BL/6 mice were used for the breast cancer (E0771) model, otherwise male mice were used. […] Statistical analysis: The fluorescence and background intensities of a region of interest over each tissue were quantified using customized imaging software and ImageJ v1.48 (National Institutes of Health, Bethesda, MD). The signal-to-background ratio (SBR) was calculated as SBR=fluorescence/background, where background was the fluorescence intensity of muscle. Data were reported as mean±s.e.m. with a minimum of three biological replicates. Student's t-test statistical analysis was performed to evaluate the significance of the experimental data. The differences among groups were determined using one-way ANOVA analysis to assess the statistical differences among more than two groups. […] The data was indicated with *p<0.05, ** p<0.01, *** p<0.001, and **** p<0.0001.

[6] = tested on: serum proteins, mostly albumin; settings: cited from earlier work

SMILES	fluorescence signal location in resected tumor (LLC tumor)	reference quantum yield ΦICG [1]	photodegradation (% reduced fluorescence intensity) [2] [%]	positively stained cells across distinct immune cell populations ([3]; bone marrow) [%]	positively stained cells across distinct immune cell populations ([3]; tumor) [%]	reaction with serum proteins [4]	tumor targeting / tumor signal [5]	clearance ([5]; mouse, in vivo)	time to bind half of the maximum [6] [min]	nonspecific background signal in biodistribution ([5]; 4 h post-injection)	circulation in the blood stream ([5]; 48 h post-injection)	tumor signal intensity after skin removal ([5]; 48 h post-injection)
CC1(C)C(/C=C/C=C/C=C/C=C2\N(CCCCS(=O)(=O)O)c3ccc4ccccc4c3C2(C)C)=[N+](CCCCS(=O)(=O)[O-])c2ccc3ccccc3c21 [ICG, indocyanine green, reference compound]	barely present in the tumor	0.043	41	< 8	< 14	did not show any reactions with proteins until 24 h incubation	did not show good tumor targeting	fast hepatobiliary clearance	–	–	–	–
CCCN1/C(=C/C=C2\CCCC(/C=C/C3=[N+](CCC)c4ccccc4C3(C)C)=C2Cl)C(C)(C)c2ccccc21.[I-] [IR-780]	only present in the peritumoral region	–	–	< 22	< 7	–	accumulating in tumors at early time points around 4 h post-injection	–	~2	High nonspecific background signal	strong signals in the blood plasma; also recorded: circulating in the blood stream	significantly decreased after skin removal

— patent publication US20260166182A1, “CYANINE-BASED FLUOROPHORES” (The General Hospital Corporation, priority 2022, published 2026)
